In one experiment the target is T1, CK2α (Homo sapiens, UniProt P68400).
T1 construct: CK2α (residues 2-329) was produced in Escherichia coli BL21 (DE3) for kinase activity screening; His6 (N, cleaved yes); made in house; host or cells: Escherichia coli BL21 (DE3)
T1 sequence (P68400 2-329): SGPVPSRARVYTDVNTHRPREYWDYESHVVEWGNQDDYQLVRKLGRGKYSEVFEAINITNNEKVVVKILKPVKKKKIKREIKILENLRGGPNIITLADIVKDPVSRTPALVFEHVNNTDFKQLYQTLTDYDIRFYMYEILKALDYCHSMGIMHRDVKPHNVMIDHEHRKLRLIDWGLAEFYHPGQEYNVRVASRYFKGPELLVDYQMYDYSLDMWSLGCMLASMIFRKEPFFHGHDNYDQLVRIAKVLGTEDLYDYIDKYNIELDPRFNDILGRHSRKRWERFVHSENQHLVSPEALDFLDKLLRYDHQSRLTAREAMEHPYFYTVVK
Put plainly: Biochemical assay for inhibitors of CK2α kinase activity (ADP-Glo). Conditions: 0.2 nM CK2α, 50 μM peptide substrate, 15 μM ATP, read-out: Assay 1: CK2α Enzyme IC50. (In general: ADP-Glo first removes unused ATP, then detects ADP through luciferase.)

The target in another experiment is T2, CLK2 (Homo sapiens, UniProt P49760).
T2 construct: purchased Carna Biosciences 04-127
Put plainly: Biochemical assay for inhibitors of CLK2 kinase activity (ADP-Glo). Conditions: 20 nM CLK2, 50 μM peptide substrate, 100 μM ATP, read-out: Assay 2: CLK2 Enzyme IC50.

For a further experiment, the target named is T3, intracellular CK2α (Homo sapiens, UniProt P19784).
T3 construct: host or cells: HCT116 (ATCC CCL-247)
Put plainly: Cell-based NanoBRET assay for inhibitor binding to intracellular CK2α. Conditions: HCT116 cells transiently transfected with CSNK2A2-NanoLuc fusion vector; Tracer K-5; 2 h; read-out: Assay 3: NanoBRET ™ assay for binding to intracellular CK2α. The essentials: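 Apparent affinity came from BRET ratio (acceptor/donor ×1,000), with donor read at 450 nm and acceptor at 610 or 630 nm. Compounds competed off a tracer added at fixed concentration to cells carrying a NanoLuc-CK2α fusion.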
In general terms: Bioluminescence resonance energy transfer reports proximity on the nanometre scale.

pIC50: −log10 of the molar value.

The results in this text go back to patent US20260085062A1, “NOVEL COMPOUNDS AS CK2 INHIBITORS” (Cambridge Enterprise Limited, priority 2022, published 2026).

T3 sequence (P19784 whole entry): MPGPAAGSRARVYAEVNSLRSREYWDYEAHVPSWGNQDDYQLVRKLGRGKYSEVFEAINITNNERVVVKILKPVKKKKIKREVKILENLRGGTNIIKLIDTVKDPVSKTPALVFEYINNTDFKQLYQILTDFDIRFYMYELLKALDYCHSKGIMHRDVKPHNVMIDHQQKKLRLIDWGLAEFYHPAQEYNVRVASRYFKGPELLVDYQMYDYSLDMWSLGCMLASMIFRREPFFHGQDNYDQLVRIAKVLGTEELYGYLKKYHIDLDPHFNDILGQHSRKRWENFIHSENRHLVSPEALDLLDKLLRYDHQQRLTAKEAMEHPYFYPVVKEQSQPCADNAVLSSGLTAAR
T2 sequence (P49760 whole entry): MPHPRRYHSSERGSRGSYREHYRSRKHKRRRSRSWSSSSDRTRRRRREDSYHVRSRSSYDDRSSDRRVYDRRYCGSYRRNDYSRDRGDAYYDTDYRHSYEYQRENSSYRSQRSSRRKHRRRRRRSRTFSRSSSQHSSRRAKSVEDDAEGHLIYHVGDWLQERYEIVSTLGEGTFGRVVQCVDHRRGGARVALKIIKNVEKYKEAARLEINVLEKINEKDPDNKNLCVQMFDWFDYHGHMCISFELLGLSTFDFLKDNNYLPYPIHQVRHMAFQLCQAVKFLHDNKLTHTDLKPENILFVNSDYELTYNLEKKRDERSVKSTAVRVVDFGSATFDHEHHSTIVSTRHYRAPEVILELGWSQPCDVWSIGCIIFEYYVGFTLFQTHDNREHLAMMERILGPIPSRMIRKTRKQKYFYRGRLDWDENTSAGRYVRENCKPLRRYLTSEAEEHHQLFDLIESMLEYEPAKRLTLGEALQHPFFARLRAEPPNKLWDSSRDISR

As to `c1cc2[nH]c(CNCCCCOC3CN(c4cc(-c5cnoc5)cc5[nH]ncc45)C3)cc2cc1OC1CCC1` [Example 119, N-((5-cyclobutoxy-1H-indol-2-yl)methyl)-4-((1-(6-(isoxazol-4-yl)-1H-indazol-4-yl)azetidin-3-yl)oxy)butan-1-amine], the pIC50 was 7.64 on CK2α, 6.21 at CLK2 and 5.79 at intracellular CK2α.
For `OCc1cc(CNCCCCOC2CN(c3cc(-c4cnoc4)cc4[nH]ncc34)C2)cc(C(F)(F)F)c1` [Example 120, (3-(((4-((1-(6-(isoxazol-4-yl)-1H-indazol-4-yl)azetidin-3-yl)oxy)butyl)amino)methyl)-5-(trifluoromethyl)phenyl)methanol] the same measures were 7.07, 6.85 and 5.49.
The like results for `Cc1cc(CC#N)cc(CNCCCCOC2CN(c3cc(-c4cnoc4)cc4[nH]ncc34)C2)c1` [Example 121, 2-(3-(((4-((1-(6-(isoxazol-4-yl)-1H-indazol-4-yl)azetidin-3-yl)oxy)butyl)amino)methyl)-5-methylphenyl)acetonitrile] were, in that order, 7.35, 6.68 and 5.44.
`N#CCc1cc(Cl)cc(CNCCCCOC2CN(c3cc(-c4cnoc4)cc4[nH]ncc34)C2)c1` [Example 122, 2-(3-chloro-5-(((4-((1-(6-(isoxazol-4-yl)-1H-indazol-4-yl)azetidin-3-yl)oxy)butyl)amino)methyl)phenyl)acetonitrile]: the pIC50 is 7.53 on CK2α, 6.97 on CLK2 and 6.08 on intracellular CK2α.
The like results for `FC(F)(F)Oc1ccc(CNCCCCOCCOc2cc(-n3cnnc3)cc3[nH]nnc23)cc1Cl` [Example 123, 4-(2-((6-(4H-1,2,4-triazol-4-yl)-1H-benzo[d][1,2,3]triazol-4-yl)oxy)ethoxy)-N-(3-chloro-4-(trifluoromethoxy)benzyl)butan-1-amine] were, in that order, 6.51, 4.35 and less than 4.30.
For the compound `c1cc2[nH]c(CNCCCCOC3CN(c4cc(-n5cnnc5)cc5[nH]ncc45)C3)cc2cc1OC1CCC1` [Example 124, 4-((1-(6-(4H-1,2,4-triazol-4-yl)-1H-indazol-4-yl)azetidin-3-yl)oxy)-N-((5-cyclobutoxy-1H-indol-2-yl)methyl)butan-1-amine], the pIC50 is 8.13 on CK2α, 6.87 at CLK2 and 5.70 on intracellular CK2α.
For `OCc1cc(F)cc(CNCCCCOC2CN(c3cc(-n4cnnc4)cc4[nH]ncc34)C2)c1` [Example 125, (3-(((4-((1-(6-(4H-1,2,4-triazol-4-yl)-1H-indazol-4-yl)azetidin-3-yl)oxy)butyl)amino)methyl)-5-fluorophenyl)methanol] the same measures were 6.79, 6.82 and 4.31.
The like results for `FC(F)(F)Oc1ccc(CNCCCCOCCNc2cc(-n3cnnc3)cc3[nH]nnc23)cc1Cl` [Example 126, N-(2-(4-((3-chloro-4-(trifluoromethoxy)benzyl)amino)butoxy)ethyl)-6-(4H-1,2,4-triazol-4-yl)-1H-benzo[d][1,2,3]triazol-4-amine] were, in that order, 7.96, 4.74 and 5.44.
The like results for `FC(F)(F)c1ccc2[nH]c(CNCCCCOC3CN(c4cc(-n5cnnc5)cc5[nH]ncc45)C3)cc2c1` [Example 128, 4-((1-(6-(4H-1,2,4-triazol-4-yl)-1H-indazol-4-yl)azetidin-3-yl)oxy)-N-((5-(trifluoromethyl)-1H-indol-2-yl)methyl)butan-1-amine] were, in that order, 8.40, 6.73 and less than 4.30.
Take `Fc1cc(CNCCCCOC2CN(c3cc(-n4cnnc4)cc4[nH]ncc34)C2)ccc1OC(F)(F)F` [Example 129, 4-((6-(6-(4H-1,2,4-triazol-4-yl)-1H-indazol-4-yl)azetidine-3-yl)oxy)-N-(3-fluoro-4-(trifluoromethoxy)benzyl)butan-1-amine]: the pIC50 is 7.63 at CK2α, 6.31 at CLK2 and less than 4.30 on intracellular CK2α.
`OCc1cc(Cl)cc(CNCCCCOC2CN(c3cc(-n4cnnc4)cc4[nH]ncc34)C2)c1` [Example 130, (3-(((4-((1-(6-(4H-1,2,4-triazol-4-yl)-1H-indazol-4-yl)azetidin-3-yl)oxy)butyl)amino)methyl)-5-chlorophenyl)methanol]: the pIC50 was 6.98 on CK2α, 6.49 at CLK2 and 4.81 on intracellular CK2α.
For `N#CCc1cc(Cl)cc(CNCCCCOC2CN(c3cc(-n4cnnc4)cc4[nH]ncc34)C2)c1` [Example 131, 2-(3-(((4-((1-(6-(4H-1,2,4-triazol-4-yl)-1H-indazol-4-yl)azetidin-3-yl)oxy)butyl)amino)methyl)-5-chlorophenyl)acetonitrile] the same measures were 7.55, 6.84 and 5.52.
For the compound `FC(F)(F)Oc1ccc(CNCCCCOC2CN(c3cc(-n4cnnc4)cc4[nH]ncc34)C2)cc1Cl` [Example 132, 4-((1-(6-(4H-1,2,4-triazol-4-yl)-1H-indazol-4-yl)azetidin-3-yl)oxy)-N-(3-chloro-4-(trifluoromethoxy)benzyl)butan-1-amine], the pIC50 at CK2α is 7.96; on CLK2, 6.35; on intracellular CK2α, 6.06.
For `N#CCc1cc(Cl)cc(CNCCCCOC2CN(c3cc(-c4ccnnc4)cc4[nH]ncc34)C2)c1` [Example 133, 2-(3-chloro-5-(((4-((1-(6-(pyridazin-4-yl)-1H-indazol-4-yl)azetidin-3-yl)oxy)butyl)amino)methyl)phenyl)acetonitrile] the same measures were 7.50, 5.69 and 5.51.
The like results for `N#CCc1cc(CNCCCCOC2CN(c3cc(-c4ccnnc4)cc4[nH]ncc34)C2)cc(OC(F)(F)F)c1` [Example 134, 2-(3-(((4-((1-(6-(pyridazin-4-yl)-1H-indazol-4-yl)azetidin-3-yl)oxy)butyl)amino)methyl)-5-(trifluoromethoxy)phenyl)acetonitrile] were, in that order, 8.28, 5.57 and 6.09.
For `Fc1cc(CNCCCCOC2CN(c3cc(-c4cnoc4)cc4[nH]ncc34)C2)ccc1OC(F)(F)F` [Example 135, N-(3-fluoro-4-(trifluoromethoxy)benzyl)-4-((1-(6-(isoxazol-4-yl)-1H-indazol-4-yl)azetidin-3-yl)oxy)butan-1-amine] the same measures were 7.88, 6.64 and 5.74.
Regarding `OCc1cc(Cl)cc(CNCCCCOC2CN(c3cc(-c4cnoc4)cc4[nH]ncc34)C2)c1` [Example 136, (3-chloro-5-(((4-((1-(6-(isoxazol-4-yl)-1H-indazol-4-yl)azetidin-3-yl)oxy)butyl)amino)methyl)phenyl)methanol], the figures for the pIC50 at CK2α, at CLK2 and at intracellular CK2α were 7.48, 6.91 and 5.47, respectively.
With `FC(F)(F)Oc1ccc(CNCCCCOC2CN(c3cc(-c4cnoc4)cc4[nH]ncc34)C2)cc1Cl` [Example 137, N-(3-chloro-4-(trifluoromethoxy)benzyl)-4-((1-(6-(isoxazol-4-yl)-1H-indazol-4-yl)azetidin-3-yl)oxy)butan-1-amine], the pIC50 is 7.88 on CK2α, 6.48 on CLK2 and 5.54 on intracellular CK2α.
The like results for `OCc1cc(F)cc(CNCCCCOC2CN(c3cc(-c4cnoc4)cc4[nH]ncc34)C2)c1` [Example 138, (3-fluoro-5-(((4-((1-(6-(isoxazol-4-yl)-1H-indazol-4-yl)azetidin-3-yl)oxy)butyl)amino)methyl)phenyl)methanol] were, in that order, 7.47, 6.94 and 5.23.
For `FC(F)(F)c1ccc2[nH]c(CNCCCCOC3CN(c4cc(-c5cnoc5)cc5[nH]ncc45)C3)cc2c1` [Example 139, 4-((1-(6-(isoxazol-4-yl)-1H-indazol-4-yl)azetidin-3-yl)oxy)-N-((5-(trifluoromethyl)-1H-indol-2-yl)methyl)butan-1-amine] the same measures were 7.96, 6.30 and 5.63.
The like results for `FC(F)(F)c1ccc2[nH]c(CNCCCCOC3CN(c4cc(-c5ccnnc5)cc5[nH]ncc45)C3)cc2c1` [Example 140, 4-((1-(6-(pyridazin-4-yl)-1H-indazol-4-yl)azetidin-3-yl)oxy)-N-((5-(trifluoromethyl)-1H-indol-2-yl)methyl)butan-1-amine] were, in that order, 7.99, 5.69 and 5.55.
